# From patent US8247170B2, “Detection of penicillin tolerance in Group B Streptococcus: single nucleotide polymorphisms in penicillin binding protein 4” (priority 2008, dated 2012)
# Test system: GBS clinical isolates and laboratory strains
# Experiment: Macrobroth penicillin tolerance assay
# Type: cell-based, Group B Streptococcus
# Settings: then 24 h drug-free; for 30xMIC, regrowth O.D.600: Penicillin G 30×MIC90 48 h; for 100xMIC, regrowth O.D.600: Penicillin G 100×MIC90 48 h; for 300xMIC, regrowth O.D.600: Penicillin G 300×MIC90 48 h; for 10xMIC, regrowth O.D.600: Penicillin G 10×MIC90 48 h
# Method: Using this modified penicillin tolerance assay, tolerant strains from the GBS clinical isolates can be more efficiently identified. In this macrobroth culture format, 25 ml THB broth GBS cultures (containing clinical isolates) were grown to an early exponential growth phase (˜0.2 OD600). Cell cultures (6 ml) were collected and divided into 4 culture tubes. […] Cell cultures were shaken at 150 rpm in order to maintain cells in suspension for proper growth. Subcultures (1/20 dilution) of cells were put into fresh THB containing […] Penase (i.e., 100 μl of Penase 10,000 U stock into 4 ml THB culture). Subcultures were allowed to grow for 24 hours at 37° C. Cell growth was monitored by OD (see Example 2).
# (I) Bacterial Strains and Culture Conditions. GBS strains A909 (serotype IA), 515 (serotype IA), NEM316 (serotype III), COHI (serotype III), 2603V/R (serotype V) and O90R (non-typable) were used in this study. E. coli Top10 cells were used for the recombination experiments. GBS was cultured in Todd Hewitt broth (THB) or Tryptic Soy 5% sheep blood (TS) media and E. coli in Luria-broth (LB) medium or agar. Antibiotics were used at the following concentrations: for GBS—penicillin G (MIC90 0.06 μg ml^−1), ampicillin (MIC90 0.12 μg ml^−1), vancomycin (MIC90 2 μg ml^−1), cefazolin (MIC90 1 μg ml^−1) and chloramphenicol (5 μg ml^−1); for E. coli—ampicillin (50 μg ml^−1) and chloramphenicol (5 μg ml^−1). Both GBS and E. coli cultures were grown at 37° C. (II) Tolerance Using the MBC:MIC Ratio Method. Three GBS laboratory strains (i.e., A909, NEM316, and O90R) were cultured overnight for 18 h at 37° C. in THB. Subcultures in THB were subsequently grown to exponential phase (OD600˜0.3; i.e. 5×10^5 cfu/ml) at 37° C. Cell cultures were then exposed to different concentrations of antibiotics (Penicillin G, Ampicillin, Cefozolin or Vancomycin). […] Cell cultures were dispersed every 18 h before OD600 was measured to determine the lowest concentration of antibiotic with 90% growth inhibition (MIC90). Antibiotic treated cells (8 μl) from each well were re-suspended into PBS (100 μl) and plated (54 μl) on TS agar plates and allowed to grow for an additional 24 h at 37° C. Cell count was performed to determine the lowest concentration of antibiotic with 90% killing of original inoculums (MBC90). (III) Penicillin Killing and Regrowth Tolerance Assay by Microbroth Dilution. Three GBS laboratory strains (i.e., A909, NEM316, and O90R) were cultured overnight for 18 h at 37° C. in THB. Subcultures in THB were subsequently grown to exponential phase (OD600˜0.3) at 37° C. Cell cultures were then exposed to different concentrations of Penicillin G (Sigma, St. Louis, Mo.). […] Cell cultures were dispersed. A 1:20 dilution of cells was re-plated into new wells containing fresh THB with 500 U Penase (to degrade residual penicillin). Cell cultures were allowed to re-grow for an additional 24 h at 37° C. before the OD600 was measured. (IV) Measuring Cell Viability by Determining ATP Concentration. GBS strains were cultured for 18 h at 37° C. in THB. These cells were inoculated into fresh THB and subsequently allowed to grow to exponential phase (OD600 0.25-0.3) at 37° C. One ml of each culture was centrifuged at 5,000×g for 4 min. The cell pellet was re-suspended in ATP-free water. Cellular ATP was extracted using trichloroacetic acid (TCA) (5%) for 2 min and subsequently neutralized with Tris-EDTA-0.1M NaOAc, pH 7.75 to 10×TCA volume. The initial (in.) cellular ATP concentration ([ATP]) was measured using the ENLITEN (Promega) luciferase based reaction kit. THB cultures were then treated with 100×MIC90 Penicillin G for 22 h. The experimental (exp.) cellular ATP was extracted and the concentration was measured as stated above. Based on the calculations ([ATP] exp.)/([ATP] in./O.D. in.), differences in viability were equated with the change in [ATP]. (V) Measuring Penicillin Induced Lysis. Three GBS laboratory strains (A909, NEM316, and O90R) were cultured for 18 h at 37° C. in THB. […]
smiles,measurement,setting,value
CC1(C)S[C@@H]2[C@H](NC(=O)Cc3ccccc3)C(=O)N2[C@H]1C(=O)O [Penicillin G],"30xMIC, regrowth O.D.600",GBS strain 172 (NT),−− (“−−” indicates an O.D.600 of 0.001 to 0.099)
same,"100xMIC, regrowth O.D.600",GBS strain 172 (NT),−− (“−−” indicates an O.D.600 of 0.001 to 0.099)
same,"300xMIC, regrowth O.D.600",GBS strain 172 (NT),−− (“−−” indicates an O.D.600 of 0.001 to 0.099)
same,"10xMIC, regrowth O.D.600",GBS strain 180 (V),−− (“−−” indicates an O.D.600 of 0.001 to 0.099)
same,"30xMIC, regrowth O.D.600",GBS strain 180 (V),−− (“−−” indicates an O.D.600 of 0.001 to 0.099)
same,"100xMIC, regrowth O.D.600",GBS strain 180 (V),−− (“−−” indicates an O.D.600 of 0.001 to 0.099)
same,"300xMIC, regrowth O.D.600",GBS strain 180 (V),−− (“−−” indicates an O.D.600 of 0.001 to 0.099)
same,"10xMIC, regrowth O.D.600",GBS strain 193 (III),−− (“−−” indicates an O.D.600 of 0.001 to 0.099)
same,"30xMIC, regrowth O.D.600",GBS strain 193 (III),−− (“−−” indicates an O.D.600 of 0.001 to 0.099)
same,"100xMIC, regrowth O.D.600",GBS strain 193 (III),−− (“−−” indicates an O.D.600 of 0.001 to 0.099)
same,"300xMIC, regrowth O.D.600",GBS strain 193 (III),−− (“−−” indicates an O.D.600 of 0.001 to 0.099)
same,"10xMIC, regrowth O.D.600",GBS strain 204 (V),−− (“−−” indicates an O.D.600 of 0.001 to 0.099)
same,"30xMIC, regrowth O.D.600",GBS strain 204 (V),−− (“−−” indicates an O.D.600 of 0.001 to 0.099)
same,"100xMIC, regrowth O.D.600",GBS strain 204 (V),−− (“−−” indicates an O.D.600 of 0.001 to 0.099)
same,"300xMIC, regrowth O.D.600",GBS strain 204 (V),−− (“−−” indicates an O.D.600 of 0.001 to 0.099)
same,"10xMIC, regrowth O.D.600",GBS strain 211 (Ib),−− (“−−” indicates an O.D.600 of 0.001 to 0.099)
same,"30xMIC, regrowth O.D.600",GBS strain 211 (Ib),−− (“−−” indicates an O.D.600 of 0.001 to 0.099)
same,"100xMIC, regrowth O.D.600",GBS strain 211 (Ib),−− (“−−” indicates an O.D.600 of 0.001 to 0.099)
same,"300xMIC, regrowth O.D.600",GBS strain 211 (Ib),−− (“−−” indicates an O.D.600 of 0.001 to 0.099)
same,"10xMIC, regrowth O.D.600",GBS strain 219 (Ia),+ (“+” indicates an O.D.600 of 0.100 to 0.250)
same,"30xMIC, regrowth O.D.600",GBS strain 219 (Ia),+ (“+” indicates an O.D.600 of 0.100 to 0.250)
same,"100xMIC, regrowth O.D.600",GBS strain 219 (Ia),+ (“+” indicates an O.D.600 of 0.100 to 0.250)
same,"300xMIC, regrowth O.D.600",GBS strain 219 (Ia),+ (“+” indicates an O.D.600 of 0.100 to 0.250)
same,"10xMIC, regrowth O.D.600",GBS strain 244 (Ib),−− (“−−” indicates an O.D.600 of 0.001 to 0.099)
same,"30xMIC, regrowth O.D.600",GBS strain 244 (Ib),−− (“−−” indicates an O.D.600 of 0.001 to 0.099)
same,"100xMIC, regrowth O.D.600",GBS strain 244 (Ib),−− (“−−” indicates an O.D.600 of 0.001 to 0.099)
same,"300xMIC, regrowth O.D.600",GBS strain 244 (Ib),−− (“−−” indicates an O.D.600 of 0.001 to 0.099)
same,"10xMIC, regrowth O.D.600",GBS strain 264 (V),+++ (“+++” indicates an O.D.600 of 0.751 to 1.500)
same,"30xMIC, regrowth O.D.600",GBS strain 264 (V),++ (“++” indicates an O.D.600 of 0.251 to 0.750)
same,"100xMIC, regrowth O.D.600",GBS strain 264 (V),−− (“−−” indicates an O.D.600 of 0.001 to 0.099)
same,"300xMIC, regrowth O.D.600",GBS strain 264 (V),++ (“++” indicates an O.D.600 of 0.251 to 0.750)
same,"10xMIC, regrowth O.D.600",GBS strain 268 (Ib),++ (“++” indicates an O.D.600 of 0.251 to 0.750)
same,"30xMIC, regrowth O.D.600",GBS strain 268 (Ib),−− (“−−” indicates an O.D.600 of 0.001 to 0.099)
same,"100xMIC, regrowth O.D.600",GBS strain 268 (Ib),+++ (“+++” indicates an O.D.600 of 0.751 to 1.500)
same,"300xMIC, regrowth O.D.600",GBS strain 268 (Ib),+++ (“+++” indicates an O.D.600 of 0.751 to 1.500)
same,"10xMIC, regrowth O.D.600",GBS strain 272 (V),−− (“−−” indicates an O.D.600 of 0.001 to 0.099)
same,"30xMIC, regrowth O.D.600",GBS strain 272 (V),−− (“−−” indicates an O.D.600 of 0.001 to 0.099)
same,"100xMIC, regrowth O.D.600",GBS strain 272 (V),−− (“−−” indicates an O.D.600 of 0.001 to 0.099)
same,"300xMIC, regrowth O.D.600",GBS strain 272 (V),−− (“−−” indicates an O.D.600 of 0.001 to 0.099)
same,"10xMIC, regrowth O.D.600",GBS strain 273 (V),−− (“−−” indicates an O.D.600 of 0.001 to 0.099)
same,"30xMIC, regrowth O.D.600",GBS strain 273 (V),−− (“−−” indicates an O.D.600 of 0.001 to 0.099)
same,"100xMIC, regrowth O.D.600",GBS strain 273 (V),−− (“−−” indicates an O.D.600 of 0.001 to 0.099)
same,"300xMIC, regrowth O.D.600",GBS strain 273 (V),++ (“++” indicates an O.D.600 of 0.251 to 0.750)
same,"10xMIC, regrowth O.D.600",GBS strain 279 (III),++ (“++” indicates an O.D.600 of 0.251 to 0.750)
same,"30xMIC, regrowth O.D.600",GBS strain 279 (III),+++ (“+++” indicates an O.D.600 of 0.751 to 1.500)
same,"100xMIC, regrowth O.D.600",GBS strain 279 (III),++ (“++” indicates an O.D.600 of 0.251 to 0.750)
same,"300xMIC, regrowth O.D.600",GBS strain 279 (III),++ (“++” indicates an O.D.600 of 0.251 to 0.750)
same,"10xMIC, regrowth O.D.600",GBS strain 296 (Ia),−− (“−−” indicates an O.D.600 of 0.001 to 0.099)
same,"30xMIC, regrowth O.D.600",GBS strain 296 (Ia),−− (“−−” indicates an O.D.600 of 0.001 to 0.099)
same,"100xMIC, regrowth O.D.600",GBS strain 296 (Ia),++ (“++” indicates an O.D.600 of 0.251 to 0.750)
same,"300xMIC, regrowth O.D.600",GBS strain 296 (Ia),−− (“−−” indicates an O.D.600 of 0.001 to 0.099)
same,"10xMIC, regrowth O.D.600",GBS strain 306 (II),−− (“−−” indicates an O.D.600 of 0.001 to 0.099)
same,"30xMIC, regrowth O.D.600",GBS strain 306 (II),−− (“−−” indicates an O.D.600 of 0.001 to 0.099)
same,"100xMIC, regrowth O.D.600",GBS strain 306 (II),−− (“−−” indicates an O.D.600 of 0.001 to 0.099)
same,"300xMIC, regrowth O.D.600",GBS strain 306 (II),−− (“−−” indicates an O.D.600 of 0.001 to 0.099)
same,"10xMIC, regrowth O.D.600",GBS strain 307 (II),−− (“−−” indicates an O.D.600 of 0.001 to 0.099)
same,"30xMIC, regrowth O.D.600",GBS strain 307 (II),−− (“−−” indicates an O.D.600 of 0.001 to 0.099)
same,"100xMIC, regrowth O.D.600",GBS strain 307 (II),−− (“−−” indicates an O.D.600 of 0.001 to 0.099)
same,"300xMIC, regrowth O.D.600",GBS strain 307 (II),−− (“−−” indicates an O.D.600 of 0.001 to 0.099)
